Laboratory results: ChEMBL document CHEMBL1201862, “PubChem BioAssay data set” (2004)
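The compound was tested at five concentrations on cells cultured in 96-well plates, with a 48-hour exposure period. GI50 = concentration required for 50% inhibition of growth.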 Calls of active or inactive are those of the source. Cut-off read from the data, not from the text of the source: active = GI50 up to about 1.1 µM and inactive = higher.

Legend:
Experiment in all cases: inhibition of tumour cell growth, NCI panel, 48 h
[1] = system: Malme-3M
[2] = system: SW-620
[3] = system: HCC 2998
[4] = system: SNB-19
[5] = system: DU-145
[6] = system: LOX IMVI
[7] = system: KM12
[8] = system: HOP-62
[9] = system: T47D
[10] = system: 786-0
[11] = system: SK-OV-3
[12] = system: IGROV-1
[13] = system: OVCAR-3
[14] = system: PC-3
[15] = system: HT-29
[16] = system: MCF7
[17] = system: NCI-H23
[18] = system: SK-MEL-2
[19] = system: MDA-MB-435
[20] = system: NCI-H522

Measured: GI50

CC(=O)CC(OC(C)=O)C1=CCC2C(CC1C)OC(=O)C2C (stereo not given)
inactive: [1] > 100 µM | [2] > 100 µM | [3] > 100 µM | [4] > 100 µM | [5] > 100 µM | [6] 88.5 µM | [7] > 100 µM | [8] > 100 µM | [9] > 100 µM | [10] > 100 µM | [11] > 100 µM | [12] > 100 µM | [13] > 100 µM | [14] > 100 µM | [15] > 100 µM | [16] > 100 µM | [17] > 100 µM | [18] > 100 µM | [19] > 100 µM | [20] > 100 µM

NC1=Nc2ccccc2Sc2cccc(F)c21
inactive: [1] > 100 µM | [2] > 100 µM | [3] > 100 µM | [4] > 100 µM | [5] > 100 µM | [6] 99.5 µM | [7] 97.7 µM | [8] > 100 µM | [9] 62.2 µM | [10] > 100 µM | [11] > 100 µM | [12] > 100 µM | [13] 44 µM | [14] 63.5 µM | [15] > 100 µM | [16] 65 µM | [17] 48.6 µM | [18] > 100 µM | [19] 74 µM | [20] 64.4 µM

O=c1cc(CNC2CC3CCC2C3)[nH]c(=O)[nH]1 (stereo not given)
inactive: [1] > 100 µM | [2] > 100 µM | [3] > 100 µM | [4] > 100 µM | [5] > 100 µM | [6] > 100 µM | [7] > 100 µM | [8] > 100 µM | [9] > 100 µM | [10] > 100 µM | [11] > 100 µM | [12] > 100 µM | [13] > 100 µM | [14] > 100 µM | [15] > 100 µM | [16] > 100 µM | [17] > 100 µM | [18] > 100 µM | [19] > 100 µM | [20] > 100 µM

CC1(C)CCC2(C(=O)OC3OC(CO)C(O)C(O)C3O)CCC3(C)C(=CCC4C5(C)CCC(OC6OC(CO)C(O)C(O)C6O)C(C)(C)C5CCC43C)C2C1 (stereo not given)
inactive: [1] 9.77 µM | [2] 8.83 µM | [3] 4.01 µM | [4] 8.32 µM | [5] > 25 µM | [6] 4.51 µM | [7] 6.5 µM | [8] > 25 µM | [9] 6.4 µM | [10] 17.3 µM | [11] > 25 µM | [12] 14.1 µM | [13] > 25 µM | [14] 13.6 µM | [15] 9.46 µM | [16] 8 µM | [17] 11.9 µM | [18] 5.45 µM | [19] 7.16 µM | [20] 5.36 µM

O=C1CCc2ccc(O)c(c2)Oc2ccc(cc2)C(Sc2ccccc2)CCO1 (stereo not given)
inactive: [1] 13.9 µM | [2] 17 µM | [3] 17.1 µM | [4] 19.7 µM | [5] 17.8 µM | [6] 12.5 µM | [7] 15 µM | [8] 12.9 µM | [9] 7.74 µM | [10] 16 µM | [11] 34.3 µM | [12] 13.3 µM | [13] 10.9 µM | [14] 6.32 µM | [15] 15.9 µM | [16] 12.1 µM | [17] 13.1 µM | [18] 15.8 µM | [19] 17.1 µM | [20] 13.2 µM
